Values of other authors as cited in patent US10588912B2, “Methods of reducing mammographic breast density and/or breast cancer risk” (Havah Therapeutics Pty Ltd., priority 2014, dated 2020).

Details: oral absorption

Compound: C[C@]12CC[C@H]3[C@@H](CCC4=CC(=O)CC[C@@]43C)[C@@H]1CC[C@@H]2O [testosterone]
- fraction broken down in the intestines by aromatase and other metabolic pathways: approximately 85%
